The results in this text go back to ChEMBL document CHEMBL4706609, “Development of triazolothiadiazine derivatives as highly potent tubulin polymerization inhibitors: Structure-activity relationship, in vitro and in vivo study” (Eur J Med Chem, 2020).

One experiment concerns HT-29. The experiment can be described thus: Antiproliferative activity against human HT-29 cells assessed as reduction in cell growth after 48 hrs by MTT assay. The format is functional, cell-based. The conditions noted are these: HT-29, 48 h.
Experiment [1] has as its system A549. The experiment is described as follows: Antiproliferative activity against cisplatin resistant human A549 cells assessed as reduction in cell growth after 48 hrs by MTT assay. Type of experiment: functional, cell-based. The settings on record: A549, 48 h.
Experiment [2] has as its system A549. The experiment is described as follows: Antiproliferative activity against human A549 cells assessed as reduction in cell growth after 48 hrs by MTT assay. The format is functional, cell-based. The conditions noted are these: A549, 48 h. A general note: Tetrazolium assays rely on reduction of a dye to a coloured formazan, in cell work by metabolically active cells.

A further experiment relates to A2780. The experiment can be described thus: Antiproliferative activity against paclitaxel-resistant human A2780 cells assessed as reduction in cell growth after 48 hrs by MTT assay. Type of experiment: functional, cell-based. The conditions noted are these: A2780, 48 h.
Another experiment deals with HEK293. The experiment can be described thus: Cytotoxicity against HEK293 cells assessed as reduction in cell growth after 48 hrs by MTT assay. The format is cell-based. The conditions noted are these: Homo sapiens, HEK293, 48 h.
The next experiment deals with HeLa. The experiment is described as follows: Antiproliferative activity against human HeLa cells assessed as reduction in cell growth after 48 hrs by MTT assay. The format is functional, cell-based.
The test system of a further experiment is MCF7. The experiment can be described thus: Antiproliferative activity against human MCF7 cells assessed as reduction in cell growth after 48 hrs by MTT assay. The format is functional, cell-based. The conditions noted are these: MCF7, 48 h.
A short description of experiment [3]: Inhibition of porcine brain tubulin polymerization measured for 20 mins by spectrometric assay. Type of experiment: tissue-based, Sus scrofa.

Regarding `COc1cc(-c2nnc3n2N=C(Nc2ccccc2F)CS3)cc(OC)c1OC`, the IC50 (commonly the point on the concentration scale where inhibition reaches its midpoint) with HT-29 came to 2.9 µM.

Take `COc1cc(-c2nnc3n2N=C(Nc2ccc(F)cc2)CS3)cc(OC)c1OC`: the IC50 in the experiment on HT-29 was found to be 8.11 µM.

Turning to `COc1cc(C2=Nn3c(nnc3-c3ccc(F)cc3)SC2)cc(OC)c1OC`, in the experiment with HT-29, the IC50 came to 19.7 µM.

`COc1ccc(/C=C\c2cc(OC)c(OC)c(OC)c2)cc1O` [COMBRETASTATIN A4]: the IC50 is 130 µM in the experiment with A549 [1], 0.021 µM with A549 [2], 72.8 µM in the experiment with A2780 and 45.7 µM in the experiment with HEK293.

Take `COc1cc(-c2nnc3n2N=C(Nc2ccc(Cl)cc2)CS3)cc(OC)c1OC`: in the experiment with HT-29, the IC50 is 2.84 µM.

Regarding `COc1cc(-c2nnc3n2N=C(Nc2ccc(Br)cc2)CS3)cc(OC)c1OC`, in the experiment on HT-29, the IC50 worked out at 18.6 µM.

As to `COc1cc(-c2nnc3n2N=C(Nc2c(Cl)cccc2Cl)CS3)cc(OC)c1OC`, the IC50 with HT-29 was above 20 µM.

`COc1cc(-c2nnc3n2N=C(Nc2ccc(N4CCOCC4)cc2)CS3)cc(OC)c1OC`: in the experiment with HT-29, the IC50 was above 20 µM.

For the compound `COc1ccc(-c2nnc3n2N=C(c2cc(OC)c(OC)c(OC)c2)CS3)cc1OC`, the IC50 in the experiment with HT-29 was above 20 µM.

With `COc1cc(-c2nnc3n2N=C(NCCc2ccc(Cl)cc2)CS3)cc(OC)c1OC`, in the experiment on HT-29, the concentration for half-maximal inhibition (IC50) was above 20 µM.

For the compound `COc1ccc(NC2=Nn3c(nnc3-c3cc(OC)c(OC)c(OC)c3)SC2)cc1`, the IC50 in the experiment with HT-29 was above 20 µM.

As for `COc1cccc(NC2=Nn3c(nnc3-c3cc(OC)c(OC)c(OC)c3)SC2)c1`, in the experiment with HT-29, the IC50 was 12.2 µM.

As to `COc1cc(-c2nnc3n2N=C(NCCc2ccccc2)CS3)cc(OC)c1OC`, the IC50 in the experiment on HT-29 is above 20 µM.

Take `CCC1=Nn2c(nnc2-c2cc(OC)c(OC)c(OC)c2)SC1`: the IC50 in the experiment with HT-29 turned out to be 15.4 µM.

With `COc1ccc(CCNC2=Nn3c(nnc3-c3cc(OC)c(OC)c(OC)c3)SC2)cc1`, the IC50 in the experiment with HT-29 was above 20 µM.

As to `COc1cc(-c2nnc3n2N=C(c2ccco2)CS3)cc(OC)c1OC`, the IC50 in the experiment with HT-29 is 10.8 µM.

Turning to `COc1cc(-c2nnc3n2N=C(c2ccc(F)c(F)c2)CS3)cc(OC)c1OC`, the IC50 with HT-29 was above 20 µM.

Turning to `COc1cc(-c2nnc3n2N=C(c2cccc(Br)c2)CS3)cc(OC)c1OC`, the IC50 in the experiment with HT-29 is 15.4 µM.

Consider `COc1cc(-c2nnc3n2N=C(NCc2ccccc2)CS3)cc(OC)c1OC`, for which, in the experiment with HT-29, the concentration for half-maximal inhibition (IC50) was above 20 µM.

In the case of `COc1cc(-c2nnc3n2N=C(C)CS3)cc(OC)c1OC`, the 50% inhibitory concentration (IC50) with HT-29 turned out to be 15.8 µM.

Turning to `COc1ccc(C2=Nn3c(nnc3-c3cc(OC)c(OC)c(OC)c3)SC2)cc1`, the IC50 in the experiment with HeLa worked out at 0.018 µM; with MCF7, 0.205 µM; in experiment [3], 2.39 µM; with A549 [1], 67.2 µM; with HT-29, 0.18 µM; with A549 [2], 0.077 µM. In addition, the values for the IC50 in the experiment with A2780 and with HEK293 were 62.2 µM and above 100 µM, respectively.

In the case of `COc1ccc(-c2nnc3n2N=C(c2cc(OC)c(OC)c(OC)c2)CS3)cc1`, the IC50 in the experiment on HT-29 is above 20 µM.

Take `COc1cc(-c2nnc3n2N=C(Nc2ccc(S(C)(=O)=O)cc2)CS3)cc(OC)c1OC`: in the experiment on HT-29, the IC50 was above 20 µM.

Take `COc1ccc(C2=Nn3c(nnc3-c3cc(OC)c(OC)c(OC)c3)SC2)cc1O`: in the experiment on HT-29, the IC50 is 9.81 µM.

Turning to `COc1cc(-c2nnc3n2N=C(c2ccc(C(F)(F)F)cc2)CS3)cc(OC)c1OC`, the IC50 with HeLa is 0.019 µM; in the experiment on MCF7 it was 0.241 µM; in experiment [3] it was 4.82 µM; with A549 [1], above 200 µM; with HT-29, 0.29 µM; in the experiment on A549 [2], 0.286 µM. The IC50 with A2780 was 86.5 µM; with HEK293, above 100 µM.

For `COc1cc(-c2nnc3n2N=C(c2ccccc2C)CS3)cc(OC)c1OC`, the IC50 in the experiment on HT-29 was determined as 16.1 µM.

Turning to `COc1cc(-c2nnc3n2N=C(Nc2ccccc2)CS3)cc(OC)c1OC`, the IC50 in the experiment on HT-29 stood at 3.25 µM.

For `COc1cc(-c2nnc3n2N=C(NCCc2ccc(C)cc2)CS3)cc(OC)c1OC`, in the experiment on HT-29, the IC50 is above 20 µM.

Turning to `COc1cc(-c2nnc3n2N=C(c2ccc(-c4ccccc4)cc2)CS3)cc(OC)c1OC`, the IC50 with HT-29 stood at 13.7 µM.

For the compound `COc1cc(-c2nnc3n2N=C(Nc2ccc(C)cc2)CS3)cc(OC)c1OC`, the IC50 in the experiment with HT-29 is above 20 µM.

As to `COc1cc(-c2nnc3n2N=C(NCCc2ccc(F)cc2)CS3)cc(OC)c1OC`, the IC50 in the experiment with HT-29 was above 20 µM.

For `COc1cc(-c2nnc3n2N=C(c2cccc4ccccc24)CS3)cc(OC)c1OC`, in the experiment with HT-29, the IC50 stood at 6.02 µM.

For `COc1cc(-c2nnc3n2N=C(NCc2ccc(Cl)cc2)CS3)cc(OC)c1OC`, the IC50 in the experiment with HT-29 was above 20 µM.

Regarding `COc1cc(-c2nnc3n2N=C(c2cccs2)CS3)cc(OC)c1OC`, the IC50 with HT-29 worked out at 4.25 µM.

Regarding `COc1cc(-c2nnc3n2N=C(c2ccc(O)cc2)CS3)cc(OC)c1OC`, the IC50 with HT-29 was found to be 14.1 µM.

Regarding `COc1cc(NC2=Nn3c(nnc3-c3cc(OC)c(OC)c(OC)c3)SC2)cc(OC)c1OC`, the IC50 in the experiment on HT-29 is above 20 µM.

With `COc1cc(C2=Nn3c(nnc3-c3cc(OC)c(OC)c(OC)c3)SC2)cc(OC)c1OC`, in the experiment with HT-29, the IC50 was found to be 19.9 µM.

As to `COc1cc(-c2nnc3n2N=C(c2ccccc2)CS3)cc(OC)c1OC`, in the experiment with HT-29, the IC50 was 5.65 µM.

With `COc1cc(-c2nnc3n2N=C(NCc2ccc(C)cc2)CS3)cc(OC)c1OC`, the 50% inhibitory concentration (IC50) in the experiment with HT-29 was above 20 µM.

Turning to `COc1cc(-c2nnc3n2N=C(c2cccc(C)c2)CS3)cc(OC)c1OC`, the IC50 with HT-29 turned out to be 13.6 µM.

For `COc1ccc(-c2nnc3n2N=C(c2cc(OC)c(OC)c(OC)c2)CS3)cc1O`, the IC50 in the experiment with HT-29 stood at 9.86 µM.

In the case of `COc1cc(-c2nnc(SCC(=O)c3ccc(C)cc3F)n2N)cc(OC)c1OC`, the IC50 with HeLa is 0.04 µM; in the experiment with MCF7 it was above 100 µM; in the experiment on HT-29, 0.131 µM; in the experiment on A549 [2], above 100 µM.

On to `COc1cc(-c2nnc3n2N=C(c2ccc([N+](=O)[O-])cc2)CS3)cc(OC)c1OC`, for which, in the experiment on HT-29, the IC50 was above 20 µM.

For `COc1cc(-c2nnc3n2N=C(c2ccc(F)cc2)CS3)cc(OC)c1OC`, the IC50 with HT-29 worked out at 8.32 µM.

For `COc1cc(-c2nnc3n2N=C(Nc2ccccc2C)CS3)cc(OC)c1OC`, in the experiment with HT-29, the IC50 was above 20 µM.

Take `COc1cc(-c2nnc3n2N=C(NCc2ccc(Br)cc2)CS3)cc(OC)c1OC`: the IC50 with HT-29 is above 20 µM.

On to `COc1cc(-c2nnc3n2N=C(Nc2cccc(F)c2)CS3)cc(OC)c1OC`, for which the IC50 in the experiment on HT-29 was above 20 µM.

Consider `COc1cc(-c2nnc3n2N=C(C2CC2)CS3)cc(OC)c1OC`, for which the IC50 with HT-29 was above 20 µM.

On to `COc1cc(-c2nnc3n2N=C(c2cc4ccccc4oc2=O)CS3)cc(OC)c1OC`, for which the IC50 in the experiment on HT-29 amounted to 10.4 µM.

For `COc1cc(C2=Nn3c(nnc3-c3ccc(C)cc3)SC2)cc(OC)c1OC`, the IC50 in the experiment with HT-29 is above 20 µM.

With `COc1cc(-c2nnc3n2N=C(c2ccc(Br)cc2)CS3)cc(OC)c1OC`, the IC50 with HT-29 amounted to 5.18 µM.

On to `COc1cccc(C2=Nn3c(nnc3-c3cc(OC)c(OC)c(OC)c3)SC2)c1`, for which, in the experiment on HT-29, the IC50 came out at 5.94 µM.

For the compound `COc1cc(C2=Nn3c(nnc3-c3ccc(Cl)cc3)SC2)cc(OC)c1OC`, the IC50 with HT-29 is above 20 µM.
